How the values were obtained:
δ802αβγ-ENaC = target: T1, δ802αβγ-ENaC (Homo sapiens, UniProt P51168+P51170); experiment: Two-electrode voltage clamp of δ802αβγ-ENaC expressed in Xenopus oocytes; format: cell-based; conditions: oocytes pre-treated, currents at -100 mV, n=5, Figure 3D
T1 construct: We characterized full-length human δ802-ENaC expressed in both Xenopus oocytes and humanized transgenic mice; expressed in transfected cells; host or cells: Xenopus laevis oocytes injected with cRNA (pGEM HE vector)
T1 sequence (P51168 1-640): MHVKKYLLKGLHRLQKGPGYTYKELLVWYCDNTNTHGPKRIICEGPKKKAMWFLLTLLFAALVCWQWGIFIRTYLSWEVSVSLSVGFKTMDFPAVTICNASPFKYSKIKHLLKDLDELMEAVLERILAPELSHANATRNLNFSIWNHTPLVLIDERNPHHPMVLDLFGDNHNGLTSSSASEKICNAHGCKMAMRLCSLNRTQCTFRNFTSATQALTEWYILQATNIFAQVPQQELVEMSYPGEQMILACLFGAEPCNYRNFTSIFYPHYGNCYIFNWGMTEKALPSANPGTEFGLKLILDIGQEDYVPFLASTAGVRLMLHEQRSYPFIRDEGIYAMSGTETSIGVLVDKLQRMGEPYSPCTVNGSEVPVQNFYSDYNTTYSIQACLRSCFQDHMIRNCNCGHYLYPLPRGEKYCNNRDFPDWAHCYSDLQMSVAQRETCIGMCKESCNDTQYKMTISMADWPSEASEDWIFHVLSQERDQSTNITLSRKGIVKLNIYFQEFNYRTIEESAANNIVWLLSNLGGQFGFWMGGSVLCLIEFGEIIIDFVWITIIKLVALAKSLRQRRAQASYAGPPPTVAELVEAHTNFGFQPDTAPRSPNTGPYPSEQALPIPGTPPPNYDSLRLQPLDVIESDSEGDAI
T1 sequence (P51170 1-649): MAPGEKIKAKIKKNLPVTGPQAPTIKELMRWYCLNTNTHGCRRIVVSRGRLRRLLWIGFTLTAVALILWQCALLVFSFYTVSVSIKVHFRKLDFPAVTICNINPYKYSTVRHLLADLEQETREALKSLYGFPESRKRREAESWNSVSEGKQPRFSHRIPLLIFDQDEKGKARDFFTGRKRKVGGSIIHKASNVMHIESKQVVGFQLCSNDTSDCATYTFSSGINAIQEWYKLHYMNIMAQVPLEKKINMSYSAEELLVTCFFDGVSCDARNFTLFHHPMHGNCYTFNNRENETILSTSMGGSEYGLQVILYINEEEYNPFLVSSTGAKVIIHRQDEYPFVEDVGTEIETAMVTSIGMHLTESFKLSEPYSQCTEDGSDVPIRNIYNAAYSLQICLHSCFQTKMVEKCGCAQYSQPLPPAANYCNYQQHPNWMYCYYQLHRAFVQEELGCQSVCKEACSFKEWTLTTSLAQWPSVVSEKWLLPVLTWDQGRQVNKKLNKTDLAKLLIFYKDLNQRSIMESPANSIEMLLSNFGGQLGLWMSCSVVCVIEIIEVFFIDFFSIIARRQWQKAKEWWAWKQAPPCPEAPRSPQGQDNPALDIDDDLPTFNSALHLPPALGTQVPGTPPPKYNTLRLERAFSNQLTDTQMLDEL
Experimental: (§1) Cloning, in vitro transcription, and heterologous expression of δ802 ENaC and two-electrode voltage clamping assay. δ802 and other ENaC subunits were generated in human ENaC cDNAs cloned into a pGEM HE vector [4], [76]. cRNAs of human α, β, and γ ENaC were prepared as described previously. The stoichiometry of native ENaC complexes is unclear to date. Based on the studies in the last decade, several models have been proposed for αβγ ENaC channels: 1α1β1γ, 2α1β1γ, 3α3β3γ. Based on the EM structure of human αβγ ENaC [35], the currently acceptable model of human αβγ ENaC complexes is heterotrimeric (1α1β1γ). Thus we microinjected δ802:β:γ in a 1:1:1 subunit ratio. Oocytes were surgically removed from appropriately anesthetized adult female Xenopus laevis (Xenopus Express). Briefly, the ovarian tissue was removed from the frog under anesthesia by tricaine-S (Western Chemicals) through a small incision in the lower abdomen. Ovarian lobes were removed and digested in OR-2 calcium-free medium (in mM: 82.5 NaCl, 2.5 KCl, 1.0 MgCl2, 1.0 Na2HPO4, and 10.0 HEPES, pH 7.5) with the addition of 2 mg/ml collagenase (Roche, Indianapolis). Defolliculated oocytes were injected with ENaC cRNAs into the cytosol (25 ng per oocyte in 50 nl of RNase-free water) and incubated in regular OR-2 medium at 18°C. The two-electrode voltage-clamp technique was used to record whole-cell currents 48 h post injection. Oocytes were impaled with two electrodes filled with 3M KCl, having resistance of 0.5 - 2 MΩ. A TEV-200A voltage-clamp amplifier (Dagan) was used to clamp oocytes with concomitant recording of currents. Two reference electrodes were connected to the bath. The continuously perfused bathing solution was ND-96 medium (in mM: 96.0 NaCl, 1.0 MgCl2, 1.8 CaCl2, 2.5 KCl, and 5.0 HEPES, pH 7.5). Whole-cell currents were recorded as previously reported. Experiments were controlled by pCLAMP 10.7 software (Molecular Devices), and currents at -40 mV, -100 mV, and +80 mV were continuously monitored with data recorded at intervals of 10 sec. Data were sampled at the rate of 200 Hz and filtered at 50 Hz.

human αβγ-ENaC = target: T2, human αβγ-ENaC (Homo sapiens, UniProt P37088+P51168+P51170); experiment: Two-electrode voltage clamp of αβγ-ENaC expressed in Xenopus oocytes; format: cell-based; conditions: oocytes pre-treated, currents at -100 mV, n=5, Figure 3D
T2 construct: expressed in transfected cells; host or cells: Xenopus laevis oocytes injected with cRNA (pGEM HE vector)
T2 sequence (P37088 1-669): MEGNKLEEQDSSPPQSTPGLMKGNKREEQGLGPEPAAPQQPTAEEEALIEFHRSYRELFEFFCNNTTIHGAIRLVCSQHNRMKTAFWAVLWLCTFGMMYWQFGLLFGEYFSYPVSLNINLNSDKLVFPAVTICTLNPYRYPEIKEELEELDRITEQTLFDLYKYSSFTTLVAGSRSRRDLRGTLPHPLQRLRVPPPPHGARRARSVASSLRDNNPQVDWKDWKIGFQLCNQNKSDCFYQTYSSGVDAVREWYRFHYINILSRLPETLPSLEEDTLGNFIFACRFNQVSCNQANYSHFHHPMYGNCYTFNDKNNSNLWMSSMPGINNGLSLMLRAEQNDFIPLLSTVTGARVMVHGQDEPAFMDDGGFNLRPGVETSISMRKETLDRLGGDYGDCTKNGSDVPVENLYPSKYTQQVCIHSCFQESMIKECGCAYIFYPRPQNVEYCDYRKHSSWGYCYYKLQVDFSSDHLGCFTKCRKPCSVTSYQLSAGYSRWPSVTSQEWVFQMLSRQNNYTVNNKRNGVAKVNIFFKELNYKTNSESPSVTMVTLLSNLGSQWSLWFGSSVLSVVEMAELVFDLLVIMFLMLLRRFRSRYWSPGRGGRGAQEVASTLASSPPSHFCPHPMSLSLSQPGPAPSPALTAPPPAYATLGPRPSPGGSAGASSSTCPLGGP
T2 sequence (P51168 1-640): T1 sequence (P51168 1-640)
T2 sequence (P51170 1-649): T1 sequence (P51170 1-649)
Experimental: as §1

[1] = system: δ802- and γ-ENaC subunits; experiment: Immunoblot of cleavage of tagged δ802- and γ-ENaC subunits in oocytes by serine proteases; format: biochemical, human; conditions: 10 μg/ml, 45 minutes at room temperature
Experimental: Figure 3 Activation of δ802-containing ENaC channels by serine proteases. (A) Activation of δ802βγ ENaC expressed in Xenopus oocytes by two-chain urokinase plasminogen activator (tc-uPA). ENaC activity was measured at the membrane potential of -100 mV at defined time points post incubation with 10 μg/ml tc-uPA. n = 9-15. mean ± s.e.m. * P<0.05 vs data at the zero minute (min). (B) Time course of stimulatory effects of plasmin on δ802βγ-ENaC activity. n=12. * P<0.05. (C) Identification of subunit responsible for plasmin activation. Fold of amiloride-sensitive current (ASI) of ENaC-associated current in the presence of plasmin over that in the absence of plasmin was computed for oocytes expressing δ802+β+γ (δβγ), δ802 alone (δ), δ802+β(δβ), and δ802+γ (δγ). n = 12-15. * P<0.05. (D) Inhibitory effects of α-13 peptide on δ802αβγ- (δαβγ) and αβγ-ENaC activity post treatment of plasmin and aprotinin. Currents (I) at -100 mV were compared in the absence of amiloride (basal, open bar), presence of α-13 peptide (α13, closed bar), and amiloride (amil, grey bar). n=5. * P<0.05 vs basal currents, & P < 0.05 vs those in the presence of α-13 peptide. (E) Fractions of α-13 sensitive currents in cells pre-treated with plasmin and aprotinin. n=8. Control, without pre-treatment. (F) Cleavage of V5-tagged δ802- and γ-ENaC subunits by serine proteases. NI, non-injected oocytes as negative controls for ENaC expression. Oocytes incubated with chymotrypsin (CT, 10 μg/ml), plasmin (PI, 10 μg/ml) for 45 minutes at room temperature. Cells treated with the same volume of saline (‑) were controls for serine proteases.

Row | Substance | effect of pre-treatment on δ802αβγ-ENaC activity (δ802αβγ-ENaC) | effect of pre-treatment on αβγ-ENaC activity (human αβγ-ENaC) | cleavage of δ802 subunit [1]
1 | aprotinin | did not alter the current amplitude significantly | did not alter the current amplitude significantly | –
2 | chymotrypsin | – | – | Neither chymotrypsin nor plasmin nor endogenous furin cleaved the δ802 subunit

Reference: PMC6857051, “Proliferative regulation of alveolar epithelial type 2 progenitor cells by human Scnn1d gene” (Theranostics, 2019)
